# pIC50, pKd, pKi: −log10 of the molar value. Where two headings read alike, the source gives them in different places.
# What was measured:
# CRBN/DDB1 complex [1] = target: T1, CRBN/DDB1 complex (Homo sapiens, UniProt Q96SW2); test: R2 values of fragment hits at two ligand concentrations (preliminary ranking); type: binding; conditions: 2 μM CRBN/DDB1 complex; for average R2, compound at 50 μM: 50 μM ligand; for average R2, compound at 200 μM: 200 μM ligand; for average R2, differences: R2 at 50 μM minus R2 at 200 μM
# T1 construct: made in house
# Method: (§1) Here, we present how we used the R2KD assay to triage fragment hits against the CRBN/DDB1 complex. The CRBN/DDB1 complex is part of the E3 ligase system, with its thalidomide-binding domain (TBD) pocket critical for recruiting its substrate protein.[20] […] The R2 values of these fragments were measured at two ligand concentrations (200 and 50 μM) against 2 μM of the CRBN/DDB1 complex. This enabled preliminary ranking of hits. The hits with larger R2 differences rank higher. […] We also determined IC50 of the top 10 fragments using a FP based biochemical assay.[17]
# (§2) The T2 relaxation experiment was acquired using pulse program CPMG with 3-9-19 pulse sequence with gradients incorporated to suppress the water signal.[22] Extra water suppression was achieved by adding presaturation during D1. The spin-echo period (delay-180°-delay) was set to 1 msec (d20 is 500 μs), and the relaxation delay (d1) was set to 10 s. The pseudo-2D experiment contained nine slices with spin-echo period repeated the following times: 4, 20, 100, 200, 300, 500, 700, 1000, and 2000.
# CRBN/DDB1 complex [2] = target: T1, CRBN/DDB1 complex; test: FP based biochemical assay; type: binding; conditions: top 10 fragments
# Text: To determine the accuracy of Kd measured using the R2KD assay, we tested seven small molecule ligands (Figure 4) against three protein targets (BCL6, CRBN/DDB1 complex, and ERAP1) and compared their Kd values from the R2KD assay with known Ki values (Table 1) obtained in biochemical binding assays[15],[17],[18] or Kd value from the SPR binding assay.[19] We found good agreements between the Kd values and the Ki values, with most of them less than two-fold difference from those determined from biochemical or biophysical assays. […] We found the assay setup to be simple and positive controls unnecessary, making the approach suitable for new and challenging targets.
# Here, we present how we used the R2KD assay to triage fragment hits against the CRBN/DDB1 complex. The CRBN/DDB1 complex is part of the E3 ligase system, with its thalidomide-binding domain (TBD) pocket critical for recruiting its substrate protein.[20] A fragment library, composed of around 1000 compounds, was screened using R2 relaxation edited ^1H-NMR experiments, with 19 fragments subsequently identified as competitive hits for the TBD pocket. The R2 values of these fragments were measured at two ligand concentrations (200 and 50 μM) against 2 μM of the CRBN/DDB1 complex. This enabled preliminary ranking of hits. The hits with larger R2 differences rank higher. […] We then measured the Kd values of the top 10 fragments using R2KD assay and confirmed the ranking order (Table 2). We also determined IC50 of the top 10 fragments using a FP based biochemical assay.[17]
# CRBN/DDB1 complex [3] = target: T1, CRBN/DDB1 complex; test: R2KD ligand-observed 1H NMR assay (Kd from transverse relaxation rate R2); type: binding
# Method: (§3) 10 samples were prepared: samples 1–8 containing increasing ligand concentration (maintaining constant protein concentration); sample 9 and 10 containing only ligands at two different concentrations (protein absent). These two samples served as control samples to obtain the R2 values of free ligand. The final percentage of DMSO-d6 in all samples were identical to minimize possible impacts of DMSO-d6.
# as §1, §2
# Nonlinear regression analysis was carried out using GraphPad Prism 9.2.0. […] Three parameters: P, α, and Kd were in the equation with the initial value set at 1. […] CIs of parameters was calculated at 95% level using Asymmetrical (Profile-likelihood) CI.
# BCL6 BTB domain = target: BCL6 BTB domain; design: method as in PMID 35657291; conditions: known Ki from TR-FRET binding assay; cited from earlier work
# BCL6 BTB = target: T2, BCL6 BTB (Homo sapiens, UniProt P41182); test: R2KD ligand-observed 1H NMR assay (Kd from transverse relaxation rate R2); type: binding
# T2 construct: made in house
# Method: (§4) Four aqueous stock solutions were prepared in Eppendorf Safe-Lock tubes (Cat no. 0030120094) by manual pipetting: (1) ligand aqueous stock solution was prepared by adding 50 mM ligand DMSO-d6 solution to aqueous buffer; (2) dimethyl sulfoxide (DMSO) aqueous stock solution was prepared by adding the same volume of DMSO-d6 as ligand DMSO-d6 solution to aqueous buffer; (3) protein aqueous stock solution was prepared by adding protein solution to aqueous buffer; and (4) aqueous solution was the buffer used in the assay.
# as §3, with “Samples were prepared on a Bruker SamplePro-Tube liquid handler by mixing different volume of the four aqueous stocks in 96-well microplates (Greiner 650201) and then transferred to 3 mm NMR tubes (Figure 2). 10 samples” for “10 samples”
# The R2 values of four aromatic ^1H-NMR signals (Figure 3B) were experimentally determined (Figure 3C) and (R2,obs – R2F) * LT values were calculated using Excel and used as y-axis values in Prism, while ligand concentrations were plotted as the x-axis values (Figure 3D). All four NMR peaks were used to fit a global Kd with non-linear regression using a customized equation (see Experimental Section), while α values were fitted as an individual parameter for each peak (Figure 3E) as α values differ depending on the individual proton’s environment. While it was possible to fit Kd values using individual NMR peaks and then average the values (Figure 3F), we found using a global fitting algorithm increased robustness of curve fitting and better accommodated outliers in the data. The goodness of fit was judged by 95% confidence interval (CI) (profile likelihood) values and R squared value. The global Kd obtained here is close to the Ki value (54 vs 50 μM) although from our accuracy study, the differences can be larger (see section “Assay Accuracy”).
# NMR data were collected at 298 K on a Bruker AVANCE NEO 600 MHz spectrometer, equipped with 5 mm TCI CryoProbe using Bruker Topspin 4.0. The T2 relaxation experiment was acquired using pulse program CPMG with 3-9-19 pulse sequence with gradients incorporated to suppress the water signal.[22] Extra water suppression was achieved by adding presaturation during D1. The spin-echo period (delay-180°-delay) was set to 1 msec (d20 is 500 μs), and the relaxation delay (d1) was set to 10 s. The pseudo-2D experiment contained nine slices with spin-echo period repeated the following times: 4, 20, 100, 200, 300, 500, 700, 1000, and 2000. The T2 relaxation experiment was processed using MestReNova 14.1, and Data Analysis Module of MestReNova was used to obtain integrals of individual ^1H-NMR signals, which were used to calculate R2 with equation I = I0exp (−tR2).
# Nonlinear regression analysis was carried out using GraphPad Prism 9.2.0. Equation 12 was defined in user-defined equations as: Y = 0.5α*((X + Kd + P) −sqrt((sqr(X + Kd + P)) – 4*P*X)) where Y was calculated from eq 13 and X is the total ligand concentration. Three parameters: P, α, and Kd were in the equation with the initial value set at 1. In the default constraints setting, P was “constant equal to” the total protein concentration, Kd was “shared value for all data sets”, and α was “must be greater than […]”. CIs of parameters was calculated at 95% level using Asymmetrical (Profile-likelihood) CI.
# CRBN/DDB1 complex [4] = target: T1, CRBN/DDB1 complex; conditions: known Ki from biochemical binding assay, Δ39CRBN/ΔBPBDDB1 complex; cited from earlier work
# ERAP1 [5] = target: T3, ERAP1 (Homo sapiens, UniProt Q9NZ08); design: method as in PMID 31841350; conditions: known Ki from biochemical binding assay; cited from earlier work
# T3 construct: made in house
# ERAP1 [6] = target: T3, ERAP1; test: R2KD ligand-observed 1H NMR assay (Kd from transverse relaxation rate R2); type: binding; conditions: repeated three times (average)
# Method: as §4
# Samples were prepared on a Bruker SamplePro-Tube liquid handler by mixing different volume of the four aqueous stocks in 96-well microplates (Greiner 650201) and then transferred to 3 mm NMR tubes (Figure 2). 10 samples were prepared: samples 1–8 containing increasing ligand concentration (maintaining constant protein concentration); sample 9 and 10 containing only ligands at two different concentrations (protein absent). These two samples served as control samples to obtain the R2 values of free ligand. […]
# Nonlinear regression analysis was carried out using GraphPad Prism 9.2.0. Equation 12 was defined in user-defined equations as: Y = 0.5α*((X + Kd + P) −sqrt((sqr(X + Kd + P)) – 4*P*X)) where Y was calculated from eq 13 and X is the total ligand concentration. […] CIs of parameters was calculated at 95% level using Asymmetrical (Profile-likelihood) CI.
# [7] = fragment hit triage, top 10 fragments, read-out: R2KD assay Kd
# [8] = R2KD assay, repeated three times (average), read-out: Kd
# [9] = R2KD assay, Δ39CRBN/ΔBPBDDB1 complex, repeated three times (average), read-out: Kd
# T1 sequence (Q96SW2 40-442 limits assumed, species assumed, one chain of several): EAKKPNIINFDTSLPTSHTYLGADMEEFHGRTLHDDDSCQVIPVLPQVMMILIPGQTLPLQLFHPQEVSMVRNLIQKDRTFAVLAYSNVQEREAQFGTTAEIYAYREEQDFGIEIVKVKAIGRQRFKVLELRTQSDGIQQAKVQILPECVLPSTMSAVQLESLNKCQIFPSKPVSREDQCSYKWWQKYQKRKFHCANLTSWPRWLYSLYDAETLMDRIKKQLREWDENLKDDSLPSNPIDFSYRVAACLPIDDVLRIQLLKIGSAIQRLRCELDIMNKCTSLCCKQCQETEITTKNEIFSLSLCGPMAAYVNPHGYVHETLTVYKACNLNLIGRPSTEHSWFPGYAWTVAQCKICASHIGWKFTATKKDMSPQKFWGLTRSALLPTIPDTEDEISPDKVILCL
# T3 sequence (Q9NZ08 whole entry, species assumed): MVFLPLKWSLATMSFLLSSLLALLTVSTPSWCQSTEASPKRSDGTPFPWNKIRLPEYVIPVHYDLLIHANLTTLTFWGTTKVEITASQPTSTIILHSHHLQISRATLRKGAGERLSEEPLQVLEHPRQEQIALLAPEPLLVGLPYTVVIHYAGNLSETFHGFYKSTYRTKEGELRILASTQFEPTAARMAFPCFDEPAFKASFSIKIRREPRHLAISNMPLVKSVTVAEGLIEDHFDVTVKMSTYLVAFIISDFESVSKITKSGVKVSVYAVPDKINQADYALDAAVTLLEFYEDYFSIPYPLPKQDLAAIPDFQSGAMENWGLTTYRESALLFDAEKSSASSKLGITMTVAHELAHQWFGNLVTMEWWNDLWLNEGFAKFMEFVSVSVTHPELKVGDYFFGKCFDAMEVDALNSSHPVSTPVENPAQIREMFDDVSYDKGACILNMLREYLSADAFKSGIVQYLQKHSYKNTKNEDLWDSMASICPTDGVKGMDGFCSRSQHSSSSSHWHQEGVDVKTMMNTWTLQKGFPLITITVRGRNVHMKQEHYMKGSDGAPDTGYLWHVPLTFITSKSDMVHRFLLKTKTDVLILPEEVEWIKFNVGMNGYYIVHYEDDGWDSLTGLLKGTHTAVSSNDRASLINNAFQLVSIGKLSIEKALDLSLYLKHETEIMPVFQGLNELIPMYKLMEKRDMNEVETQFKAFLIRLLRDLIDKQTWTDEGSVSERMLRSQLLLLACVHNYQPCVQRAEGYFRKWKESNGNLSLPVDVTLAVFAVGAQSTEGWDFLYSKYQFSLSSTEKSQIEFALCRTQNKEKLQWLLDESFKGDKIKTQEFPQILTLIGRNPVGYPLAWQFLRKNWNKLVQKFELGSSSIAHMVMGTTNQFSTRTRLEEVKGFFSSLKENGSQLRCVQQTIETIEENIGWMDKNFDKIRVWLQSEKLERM
Compound,"average R2, compound at 50 μM (CRBN/DDB1 complex [1])","average R2, compound at 200 μM (CRBN/DDB1 complex [1])","average R2, differences (CRBN/DDB1 complex [1])",pIC50 (CRBN/DDB1 complex [2]),pKd (CRBN/DDB1 complex [3]; [7]),other results
CNC(=O)c1nc(-c2ccccc2)n(-c2ccccc2)n1 [CCT226703],1.5,1.4,0.1,–,–,–
COc1cc2c(cc1OC)C(c1cccc(O)c1)CC(=O)N2 (centres unmarked) [CCT242858],2.5,2.1,0.5,2.86,2.92,–
CC(=O)N1CCN(S(=O)(=O)c2ccc(C(C)C)cc2)CC1 [CCT240867],1.2,1.1,0.1,–,–,–
Nc1ccc(C(=O)NCC2COc3ccccc3O2)cc1 (centres unmarked) [CCT240545],2,1.5,0.5,< 2.52,3.20,–
CC(=O)Nc1cc2c(cc1C(=O)C(C)C)OCCO2 [CCT242848],3.8,2.5,1.2,< 2.52,3.27,–
Cc1nccc(Nc2cnn(CCO)c2)c1C#N [CCT365133],–,–,–,–,–,"pKi (BCL6 BTB domain): 4.30; pKd (BCL6 BTB; 5 μM BCL6, average of Peaks 1-4, unit inferred, read-out: Kd, average of individual peak fits): 4.21; pKd (BCL6 BTB; 5 μM BCL6, individual peak fit, unit inferred, read-out: Kd fitted using individual peak, Peak 1): 4.26; pKd (BCL6 BTB; 5 μM BCL6, individual peak fit, unit inferred, read-out: Kd fitted using individual peak, Peak 2): 4.28; pKd (BCL6 BTB; 5 μM BCL6, individual peak fit, unit inferred, read-out: Kd fitted using individual peak, Peak 3): 4.11; pKd (BCL6 BTB; 5 μM BCL6, individual peak fit, unit inferred, read-out: Kd fitted using individual peak, Peak 4): 4.25; pKd (BCL6 BTB; 5 μM protein, peak 3, read-out: Kd at 5 μM protein): 4.15; pKd (BCL6 BTB; 25 μM protein, peak 3, read-out: Kd at 25 μM protein): 4.24; pKd (BCL6 BTB; 35 μM protein, peak 3, read-out: Kd at 35 μM protein): 4.15; pKd (BCL6 BTB; [8]): 4.29; pKd (BCL6 BTB; ligand concentration increasing to 500 μM, no solubility limit, read-out: Kd, data set B): 4.17; Kd of data set A relative to data set B (BCL6 BTB; limited solubility mimic versus full concentration series): around 10 fold; pKd (BCL6 BTB; simplified graphical presentation, unit inferred, read-out: KD, curve fitting using calculated bound ligand concentration [PL]): 4.24; pKd (BCL6 BTB; single experiment, 5 μM BCL6, ligand 50-500 μM, four aromatic peaks, global Kd fitting, read-out: Kd, global (shared) fit): 4.27"
CCOc1ccc(C2CNC(=O)C2)cc1 (centres unmarked) [CCT239822],3.6,2.4,1.2,3.11,3.27,–
O=c1ccn(Cc2ccccc2)c(=O)[nH]1 [CCT240207],3.4,1.2,2.2,3.77,4.07,–
Cc1ccc(N2CC(=O)NC2=O)cc1 [CCT010354],4.9,2,2.9,3.62,3.91,pKi (CRBN/DDB1 complex [4]): 3.53; pKd (CRBN/DDB1 complex [3]; [9]): 3.81
CCOc1cccc(C2CC(=O)NC3=C2C(=O)CCC3)c1 (centres unmarked) [CCT228041],1.6,1.5,0.1,–,–,–
O=C(c1ccc(F)cc1)N1CCN(c2ccccc2)CC1 [CCT240195],1.6,1.4,0.2,–,–,–
O=C(O)c1cccc(S(=O)(=O)Nc2ccccc2N2CCCCC2)c1 [CCT369304],–,–,–,–,–,pKi (ERAP1 [5]): 4.48; pKd (ERAP1 [6]): 3.71
CC[C@H](O)Cn1c(=O)n(C)c2ccc(Nc3ccnc(Cl)c3C#N)cc21 [CCT367090],–,–,–,–,–,pKi (BCL6 BTB domain): 5.40; pKd (BCL6 BTB; [8]): 5.15
COc1ccc(C(=O)N2CCN(c3ccccn3)CC2)cc1 [CCT240246],1.5,1.3,0.2,–,–,–
O=CN1CCN(Cc2c(F)cccc2Cl)CC1 [CCT240107],1.6,1.5,0.1,–,–,–
N#CCCCN1C(=O)COc2ccc(Cl)cc21 [CCT228155],3,2.2,0.8,2.78,3.10,–
N#CCCCn1c(=O)oc2ccc(Cl)cc21 [CCT242918],1.6,1.3,0.3,–,–,–
COC(=O)c1ccc2c(c1)NC(=O)CO2 [CCT240569],7.2,2.6,4.6,3.82,4.14,pKi (CRBN/DDB1 complex [4]): 3.85; pKd (CRBN/DDB1 complex [3]; [9]): 4.06
O=CN1CCN(Cc2cccc(Cl)c2)CC1 [CCT240121],3.8,3.3,0.4,–,–,–

# From publication PMC10424183, “Determination of Ligand-Binding Affinity (Kd) Using Transverse Relaxation Rate (R2) in the Ligand-Observed ^1H NMR Experiment and Applications to Fragment-Based Drug Discovery” (Journal of Medicinal Chemistry, 2023)
